{
  "source": "patent US20160175316A1",
  "about": "“METHOD OF PREVENTING OR TREATING ORGAN, HEMATOPOIETIC STEM CELL OR BONE MARROW TRANSPLANT REJECTION” (AbbVie Inc., priority 2006, published 2016)",
  "key": {"[1]": {"system": "cytotoxic T lymphocytes (CTL)", "test": "In vivo CTL response after OVA priming", "parameters": "species or system C57BL/6 mice", "conditions": "75 mg/kg daily for a week, OVA priming on day 6, assay seven days after priming", "experimental": "Having established the impact of ABT-737 on the steady state immune system, its effects on the development of specific immune responses were next examined. C57BL/6 mice were treated daily for a week with either ABT-737 (75 mg/kg) or vehicle control and on treatment day 6, mice were primed with ovalbumin (OVA) antigen in the form of irradiated OVA-coated H-2Kb+ splenocytes (OCS), a protocol known to induce cytotoxic T lymphocytes (CTL). Seven days after T-cell priming, in vivo CTL responses were assayed by measuring the persistence in spleen and lymph nodes of OVA peptide pulsed target cells, CFSE labeled and injected intravenously."}, "activated murine B cells": {"system": "activated murine B cells", "test": "LPS-stimulated B cell proliferation, 3H-Thy pulse", "type": "cell-based, mouse", "conditions": "B6 B cells, in vitro stimulation with low doses of LPS, 6 hour pulse", "experimental": "Untouched B cells from B6 mouse splenocytes were isolated by MACS separation. 2×10^5B cells were cultured with EXAMPLE A, its enantiomer or vehicle control and […] of lipopolysaccharide (LPS) before a 6 hour pulse with ^3H-Thy. Control vs EXAMPLE A (P<0.05 1-way ANOVA using Dunnett's post-hoc). One representative experiment (n=2) is shown."}, "activated T cells": {"system": "activated T cells", "test": "Mouse mixed lymphocyte model, 3H-Thymidine incorporation", "type": "cell-based", "conditions": "Balb/c and C57BL/6 splenocytes co-cultured for 2 days, 6 hour pulse with 3H-Thy", "experimental": "Inhibition of ^3H-Thymidine incorporation by EXAMPLE A. 5×10^5 Balb/c and C57BL/6 splenocytes were co-cultured for 2 days with EXAMPLE A, its enantiomer or vehicle control before a 6 hour pulse with ^3H-Thy."}, "[2]": {"system": "islet allografts in spontaneously diabetic (RIP-Kb/CBA; H-2k) mice", "test": "Allogenic islet graft rejection in diabetic mice", "type": "in vivo, mouse", "conditions": "50 mg/kg intra-peritoneal daily, 14 days; for islet allograft survival versus vehicle treated recipients: graft on day 6", "experimental": "Non-immune diabetic mice were treated daily for 14 consecutive days with either ABT-737 (50 mg/kg) or vehicle control. On treatment day 6, mice received an allogenic grant of F1(B6×SJL) islets transplanted under the kidney capsule. Blood glucose was measured at various times post-transplantation. Grafts were deemed successful if normal blood glucose (<15 mmol/L) levels were achieved within 4 days post-transplantation.\nViable islets were handpicked under dissecting microscope, pooled and cultured overnight at a density of 200-300 islets/3.5 cm Petri dish in 1.1 ml DME supplemented with 10% FCS at 37° C.; 10% CO2. The following day viable islets were handpicked into aliquots of 400 (of an equivalent size distribution) before grafting into recipient mice.\nSpontaneously diabetic (RIP-Kb/CBA; H-2^k) (Sutherland, R. M., Mountford, J. N., Allison, J., Harrison, L. C., & Lew, A. M., The non-immune RIP-Kb mouse is a useful host for islet transplantation, as the diabetes is spontaneous, mild and predictable. Int J Exp Diabetes Res, 2002, 3:37-45) male mice were treated daily for five consecutive days either with ABT-737 (50 mg/kg) or vehicle control via intra-peritoneal injection as described by Mason, K. D., Carpinelli, M. R., Fletcher, J. I., Collinge, J. E., Hilton, A. A., Ellis, S., Kelly, P. N., Ekert, P. G., Metcalf, D., Roberts, A. W., et al. Programmed anulear cell death delimits platelet life span. Cell (2007) 128:1173-1186. On day 6, mice received an allograft under the left kidney capsule consisting of 400 purified mouse pancreatic islets isolated from male and female donors [(C57Bl/6×SJL) F1; H-2^b,s]. Treatment was then continued daily for 8 days post transplantation. Graft function was monitored by diabetes reversal, determined by measuring blood glucose via tail vein bleed."}, "naïve and memory T cells": {"system": "naïve and memory T cells", "test": "In vivo depletion of naïve and memory T cells in spleen and lymph nodes (flow cytometry)", "parameters": "species or system C57BL/6 mice", "experimental": "To determine if T cell sensitivity to ABT-737 treatment was predicated on the maturation or differentiation state of a T cell, C57BL/6 mice were treated for 14 consecutive days with either ABT-737 (75 mg/kg) or vehicle control. Spleen and lymph nodes were recovered and the numbers of […]), central memory ([…] effector memory (CD62LloCD44hi) cells determined by flow cytometry."}, "[3]": {"system": "NP-specific B cell subsets (germinal center, memory and plasma cells)", "test": "In vivo B cell response to NP-KLH immunization", "parameters": "species or system mice", "conditions": "for memory B cell compartment, established memory: treatment started at day 40 after immunization, 14 days, analyzed day 54; for frequency of ASC in the spleen or the bone marrow, established plasma cells: treatment starting day 40 after immunization", "experimental": "Mice were immunized with NP-KLH in alum by intraperitoneal injection and then treated with ABT-737 (75 mg/kg) or vehicle control for 14 consecutive days, starting 5 days after immunization. On day 19 after immunization, the numbers of NP-specific B cell subsets (germinal center (GC), memory and plasma cells) were quantified. As depicted in FIG. 5A, FIG. 5B, FIG. 5C, FIG. 5D, FIG. 5E, and FIG. 5F, antigen-specific B cells were detected by flow cytometry on the basis of surface staining for B220, NP and IgG1. […] To determine if memory cells were sensitive during formation or maintenance, mice were immunized and memory was allowed to form before ABT-737 treatment started at day 40 after immunization. The mice were analyzed after 14 days of treatment with ABT-737 or vehicle, i.e., day 54 after immunization. […] Antibody secreting cells (ASC) are also generated during the B cell response to antigen, secreting antibodies specific for the antigen. In the later stages of T cell dependent immune responses, ASC originate in the GC, then migrate to the bone marrow where they compete for access to survival niches in order to become long-lived plasma cells."}, "human pancreatic islets": {"system": "human pancreatic islets", "test": "Predicted toxicity to pancreatic islets from Bcl-2 family expression profile", "conditions": "predicted from expression profile of Bcl-2 family proteins such as Mcl-1"}, "[4]": {"conditions": "75 mg/kg for 14 days starting 5 days after immunization, day 19"}, "[5]": {"conditions": "treatment starting on day 5 of the response"}},
  "note": "Entries after “also recorded” stand apart in the source; their conditions may differ.",
  "data": [
    {"compound": "CN(C)CC[C@H](CSc1ccccc1)Nc1ccc(S(=O)(=O)NC(=O)c2ccc(N3CCN(Cc4ccccc4-c4ccc(Cl)cc4)CC3)cc2)cc1[N+](=O)[O-]", "note": "[EXAMPLE A, N-(4-(4-((4′-chloro(1,1′-biphenyl)-2-yl)methyl)piperazin-1-yl)benzoyl)-4-(((1R)-3-(dimethylamino)-1-((phenylsulfanyl)methyl)propyl)amino)-3-nitrobenzenesulfonamide]", "values": [
      {"measurement": "CTL activity", "setting": "[1]", "result": "significantly less CTL activity"},
      {"measurement": "reduction in specific target lysis compared to vehicle treated controls", "setting": "[1]", "result": "approximately 4 fold"},
      {"measurement": "proliferation of activated murine B cells (3H-Thy)", "setting": "activated murine B cells", "result": "inhibits proliferation of activated murine B cells"},
      {"measurement": "proliferation of activated T cells (3H-Thymidine incorporation)", "setting": "activated T cells", "result": "inhibits proliferation of activated T cells in a dose dependent manner"},
      {"measurement": "islet allograft survival versus vehicle treated recipients", "setting": "[2]", "result": "sufficiently immunosuppressive to allow long-term survival of pancreatic allografts"},
      {"measurement": "islet allograft survival versus vehicle treated recipients", "setting": "[2]; listed as ABT-737", "result": "functioned significantly longer; also recorded: survived longer"},
      {"measurement": "duration of allograft function (all mice, n=5)", "setting": "[2]; experiment terminated at 100 days", "result": "≥ 100", "unit": "days post-transplantation"},
      {"measurement": "central and effector memory CD4+ and effector CD8+ T cells in spleen", "setting": "naïve and memory T cells; 75 mg/kg, 14 consecutive days", "result": "remain refractory"},
      {"measurement": "numbers of naïve and memory T cells (CD4+ and CD8+) in lymph nodes", "setting": "naïve and memory T cells; 75 mg/kg, 14 consecutive days", "result": "significantly reduced"},
      {"measurement": "numbers of naïve cells and CD8+ central memory T cells in spleen", "setting": "naïve and memory T cells; 75 mg/kg, 14 consecutive days", "result": "effectively reduced"},
      {"measurement": "lymphocyte and dendritic cell sub-populations", "setting": "naïve and memory T cells; mouse immune system, summary statement", "result": "depleted selective lymphocyte and dendritic cell sub-populations"},
      {"measurement": "GC (CD38lo) B cells", "setting": "[3]; [4]", "result": "unaffected"},
      {"measurement": "memory (CD38hi) B cells", "setting": "[3]; [4]", "result": "susceptive"},
      {"measurement": "overall number of antigen-specific B cells (B220, NP, IgG1)", "setting": "[3]; [4]", "result": "no significant difference"},
      {"measurement": "GC (CD38lo) B cells", "setting": "[3]; 75 mg/kg for 14 days starting 5 days after immunization, day 19, listed as ABT-737", "result": "refractory"},
      {"measurement": "memory B cell compartment, established memory", "setting": "[3]", "result": "inhibited the persistence of memory B cells"},
      {"measurement": "memory B cell compartment, established memory", "setting": "[3]; listed as ABT-737", "result": "still affected"},
      {"measurement": "frequency of ASC in the spleen or the bone marrow, established plasma cells", "setting": "[3]", "result": "unaffected"},
      {"measurement": "frequency of ASC in the spleen or the bone marrow, established plasma cells", "setting": "[3]; listed as ABT-737", "result": "no reduction"},
      {"measurement": "frequency of antigen-specific IgG1 ASC in the spleen", "setting": "[3]; [5]", "result": "significantly reduced"},
      {"measurement": "frequency of total and high affinity NP-specific ASC in the bone marrow", "setting": "[3]; [5]", "result": "marked reduction"},
      {"measurement": "toxicity to human pancreatic islets", "setting": "human pancreatic islets", "result": "low toxicity"}
    ]}
  ]
}
